Molecules are shown by their SMILES.

In patent publication US12227498B2, “Heterocyclic amine derivative and pharmaceutical composition comprising same” (Daewoong Pharmaceutical Co., Ltd., priority 2018, dated 2025) one finds IC50 data, which are given here for 19 compounds.

One experiment concerns the target T1, ITK (Homo sapiens, UniProt Q08881).
T1 construct: purchased Promega Corporation
T1 sequence (Q08881 1-620): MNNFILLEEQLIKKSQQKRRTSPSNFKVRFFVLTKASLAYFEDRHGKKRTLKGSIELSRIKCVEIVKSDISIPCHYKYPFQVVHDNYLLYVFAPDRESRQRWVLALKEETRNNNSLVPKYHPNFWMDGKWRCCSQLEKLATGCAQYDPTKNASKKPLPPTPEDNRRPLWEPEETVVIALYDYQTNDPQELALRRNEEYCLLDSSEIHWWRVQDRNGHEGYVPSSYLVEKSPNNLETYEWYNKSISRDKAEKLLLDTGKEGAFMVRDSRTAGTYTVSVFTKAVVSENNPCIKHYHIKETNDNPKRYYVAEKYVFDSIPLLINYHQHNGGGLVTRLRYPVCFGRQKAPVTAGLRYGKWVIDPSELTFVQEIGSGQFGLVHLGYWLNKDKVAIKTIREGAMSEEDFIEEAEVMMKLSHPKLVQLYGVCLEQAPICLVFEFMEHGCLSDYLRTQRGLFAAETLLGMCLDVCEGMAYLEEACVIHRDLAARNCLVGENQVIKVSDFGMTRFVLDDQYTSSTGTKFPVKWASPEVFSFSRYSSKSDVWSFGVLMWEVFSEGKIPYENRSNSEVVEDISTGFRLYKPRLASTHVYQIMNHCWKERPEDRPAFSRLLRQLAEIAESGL
The experiment can be described thus: Inhibitory activity against ITK, ADP-Glo + ITK Kinase enzyme system kit (Promega). The class given is biochemical. Conditions: ITK enzyme 0.4 ng/μl; 15 min preincubation at room temperature; 1 hour at 30° C.; luminescence; duplicate. As for the experimental part:
(§1) Inhibitory activities against BTK and ITK were measured for the compounds prepared in the above Examples as follows.
The inhibitory activity against ITK was evaluated using ‘ADP-Glo™+ITK Kinase enzyme system’ kit (Promega Corporation). […] To the plate on which reactions were completed, 5 μl of substrate and 5 μl of ATP prepared so as to have a final concentration of […] were added and then allowed to react at 30° C. for 1 hour. All wells of the plate were treated with 25 μl of ADP-Glo™ reagent and then allowed to react at 30° C. for 40 minutes. After that, all wells were treated with 50 μl of kinase detection buffer, and then allowed to react at 30° C. for 30 minutes under light shielding conditions. For the plate on which all reactions were completed, luminescence was measured and the results were calculated. Evaluation was carried out in duplicate, and negative control and positive control were calculated depending on whether or not the enzyme was added without treatment of the compound. The IC50 was calculated based on the calculated values.

Another experiment addresses T2, BTK (Homo sapiens, UniProt Q06187).
T2 construct: purchased Promega Corporation
The experiment can be described thus: Inhibitory activity against BTK, ADP-Glo + BTK Kinase enzyme system kit (Promega). The class given is biochemical. The following applies: BTK enzyme 1 ng/μl; ATP 10 µM; 15 min preincubation at room temperature; 1 hour at 30° C.; luminescence; duplicate. The procedure: as §1
The inhibitory activities against BTK were evaluated using ‘ADP-Glo™+BTK Kinase enzyme system’ kit (Promega Corporation). […] 5 μl of substrate and 5 μl of ATP prepared so as to have a final concentration of 10 µM were added to the plate on which reactions were completed, and then allowed to react at 30° C. for 1 hour. All wells of the plate were treated with 25 μl of ADP-Glo™ reagent and allowed to react at 30° C. for 40 minutes. After that, all wells were treated with 50 μl of kinase detection buffer, and then reacted at 30° C. for 30 minutes under light shielding conditions. For the plate on which all reactions were completed, luminescence was measured and the results were calculated. Evaluation was carried out in duplicate, and negative control and positive control were calculated depending on whether or not the enzyme was added without treatment of the compound. The IC50 was calculated based on the calculated values.

T2 sequence (Q06187 whole entry): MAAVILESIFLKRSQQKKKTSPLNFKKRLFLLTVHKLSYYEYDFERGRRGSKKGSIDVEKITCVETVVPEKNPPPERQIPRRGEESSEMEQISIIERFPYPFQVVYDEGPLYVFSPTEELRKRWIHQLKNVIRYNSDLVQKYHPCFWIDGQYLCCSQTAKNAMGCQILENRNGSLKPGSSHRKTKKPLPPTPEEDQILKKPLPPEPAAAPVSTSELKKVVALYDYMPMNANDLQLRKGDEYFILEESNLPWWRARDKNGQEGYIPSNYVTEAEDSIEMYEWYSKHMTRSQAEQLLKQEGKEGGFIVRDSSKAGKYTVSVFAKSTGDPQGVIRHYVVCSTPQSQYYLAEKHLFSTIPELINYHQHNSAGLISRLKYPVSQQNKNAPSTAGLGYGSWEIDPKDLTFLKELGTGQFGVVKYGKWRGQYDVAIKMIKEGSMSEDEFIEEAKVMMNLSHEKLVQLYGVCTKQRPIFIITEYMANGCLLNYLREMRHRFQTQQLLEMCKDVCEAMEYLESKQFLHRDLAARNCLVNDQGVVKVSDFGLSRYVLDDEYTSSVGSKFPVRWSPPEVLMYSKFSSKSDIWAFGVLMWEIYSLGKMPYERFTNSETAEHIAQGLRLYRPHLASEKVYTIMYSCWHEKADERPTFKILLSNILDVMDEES

In the case of `C=CC(=O)N1CCC[C@H](Nc2cc(Cc3cccnc3)cc(Nc3ncc(C)s3)n2)C1` [Example 36, (S)-1-(3-((6-((5-methylthiazol-2-yl)amino)-4-(pyridin-3-ylmethyl)pyridin-2-yl)amino)piperidin-1-yl) prop-2-en-1-one], the IC50 at ITK stood at 1.8 nM; at BTK, 3.9 nM.

`C=CC(=O)N1CCC[C@H](Nc2cc(Cc3ccccn3)cc(Nc3ncc(C)s3)n2)C1` [Example 37, (S)-1-(3-((6-((5-methylthiazol-2-yl)amino)-4-(pyridin-2-ylmethyl)pyridin-2-yl)amino)piperidin-1-yl) prop-2-en-1-one]: the values for the IC50 on ITK and at BTK were 1.9 nM and 3.2 nM, respectively.

On to `C=CC(=O)N1CCC[C@H](Nc2cc(C#N)cc(Nc3ncc(C)s3)n2)C1` [Example 38], for which the IC50 at ITK worked out at 2.6 nM; at BTK it was 1.6 nM.

On to `C=CC(=O)N1CCC[C@H](Nc2cc(-c3ccccc3)cc(Nc3ncc(C)s3)n2)C1` [Example 39, (S)-1-(3-((6-((5-methylthiazol-2-yl)amino)-4-phenylpyridin-2-yl)amino)piperidin-1-yl) prop-2-en-1-one], for which the IC50 is 4.8 nM on ITK and 7.5 nM at BTK.

Turning to `C#CC(=O)N1CCC[C@H](Nc2cc(OC3CCN(C)CC3)cc(Nc3ncc(C)s3)n2)C1` [Example 40, (S)-1-(3-((4-((1-methylpiperidin-4-yl)oxy)-6-((5-methylthiazol-2-yl)amino)pyridin-2-yl)amino)piperidin-1-yl) prop-2-yn-1-one], the IC50 on ITK worked out at 10.8 nM; on BTK, 10.3 nM.

`CC#CC(=O)N1CCC[C@H](Nc2cc(OC3CCN(C)CC3)cc(Nc3ncc(C)s3)n2)C1` [Example 41, (S)-1-(3-((4-((1-methylpiperidin-4-yl)oxy)-6-((5-methylthiazol-2-yl)amino)pyridin-2-yl)amino)piperidin-1-yl) but-2-yn-1-one]: the IC50 turned out to be 128 nM at ITK and 9.5 nM at BTK.

With `C=CC(=O)N1CCC[C@H](Nc2cc(CN3CCN(CC)CC3)cc(Nc3ncc(C)s3)n2)C1` [Example 42, (S)-1-(3-((4-((4-ethylpiperazin-1-yl)methyl)-6-((5-methylthiazol-2-yl)amino)pyridin-2-yl)amino)piperidin-1-yl) prop-2-en-1-one], the values for the IC50 at ITK and at BTK were 2.2 nM and 2.5 nM, respectively.

Turning to `C=CC(=O)N1CCC[C@H](Nc2cc(CN3CCN(C)CC3)cc(Nc3ncc(C)s3)n2)C1` [Example 43], the IC50 amounted to 2.1 nM at ITK and 1.6 nM at BTK.

For the compound `Cc1cc(CN2CCOCC2)cc(Nc2ncc(C)s2)n1` [Example 44, 5-methyl-N-(6-methyl-4-(morpholinomethyl)pyridin-2-yl) thiazol-2-amine], the 50% inhibitory concentration (IC50) at ITK was around 1000 nM; on BTK, above 1000 nM.

Consider `Cc1cnc(Nc2cc(CN3CCOCC3)cc(N[C@H]3CCCN(C(=O)CCCl)C3)n2)s1` [Example 45, (S)-3-chloro-1-(3-((6-((5-methylthiazol-2-yl)amino)-4-(morpholinomethyl)pyridin-2-yl)amino)piperidin-1-yl) propan-1-one], for which the IC50 worked out at 91.6 nM on ITK and 30.8 nM on BTK.

For `Cc1cnc(Nc2cc(CN3CCOCC3)cc(N[C@H]3CCCN(C(=O)/C=C/Cl)C3)n2)s1` [Example 46, (S,E)-3-chloro-1-(3-(6-(5-methylthiazol-2-ylamino)-4-(morpholinomethyl)pyridin-2-ylamino)piperidin-1-yl) prop-2-en-1-one], the IC50 at ITK worked out at 31.8 nM; at BTK it was 5.2 nM.

On to `C=CC(=O)N1CCC[C@H](Nc2cc(CN3CCN(CCCN)CC3)cc(Nc3ncc(C)s3)n2)C1` [Example 47, (S)-1-(3-(4-((4-(3-aminopropyl)piperazin-1-yl)methyl)-6-(5-methylthiazol-2-vlamino)pyridin-2-vlamino)piperidin-1-yl) prop-2-en-1-one], for which the half-inhibitory concentration (IC50) on ITK was 9 nM; on BTK, 6.1 nM.

For `C=CC(=O)N1CCC[C@H](Nc2cc(CN3CCOCC3)cc(Nc3cc[nH]n3)n2)C1` [Example 48, (S)-1-(3-(6-(1H-pyrazol-3-ylamino)-4-(morpholinomethyl)pyridin-2-ylamino)piperidin-1-yl) prop-2-en-1-one], the IC50 at ITK and at BTK was around 1000 nM throughout.

`C=CC(=O)N1CCC[C@H](Nc2cc(CN3CCOCC3)cc(Nc3ncc(C(F)(F)F)s3)n2)C1` [Example 49, (S)-1-(3-(4-(morpholinomethyl)-6-(5-(trifluoromethyl)thiazol-2-ylamino)pyridin-2-ylamino)piperidin-1-yl) prop-2-en-1-one]: the results for the IC50 on ITK and at BTK were 3 nM and 2 nM, respectively.

Consider `C=CC(=O)N1CCC[C@H](Nc2cc(CN3CCOCC3)cc(Nc3cc(Cl)[nH]n3)n2)C1` [Example 50, (S)-1-(3-(6-(5-chloro-1H-pyrazol-3-ylamino)-4-(morpholinomethyl)pyridin-2-ylamino)piperidin-1-yl) prop-2-en-1-one], for which the 50% inhibitory concentration (IC50) on ITK and on BTK was around 1000 nM in each case.

Regarding `C=CC(=O)N1CCC[C@H](Nc2cc(CN3CCOCC3)cc(Nc3nccs3)n2)C1` [Example 51, (S)-1-(3-(4-(morpholinomethyl)-6-(thiazol-2-ylamino)pyridin-2-ylamino)piperidin-1-yl) prop-2-en-1-one], the IC50 at ITK and on BTK was around 1000 nM throughout.

On to `C=CC(=O)N1CCC[C@H](Nc2nc(Nc3ncc(C)s3)cc(CN3CCOCC3)c2F)C1` [Example 52, (S)-1-(3-(3-fluoro-6-(5-methylthiazol-2-ylamino)-4-(morpholinomethyl)pyridin-2-ylamino)piperidin-1-yl) prop-2-en-1-one], for which the IC50 at ITK and on BTK was around 1000 nM in each case.

As to `C=CC(=O)N1CCC[C@H](Nc2cc(CN3CCOCC3)cc(Nc3ccccn3)n2)C1` [Example 53, (S)-1-(3-(4-(morpholinomethyl)-6-(pyridin-2-ylamino)pyridin-2-ylamino)piperidin-1-yl) prop-2-en-1-one], the 50% inhibitory concentration (IC50) turned out to be 42.8 nM on ITK and 7.7 nM on BTK.

Take `C=CC(=O)N1CCC[C@H](Nc2cc(CN3CCOCC3)cc(Nc3ncccn3)n2)C1` [Example 54, (S)-1-(3-(4-(morpholinomethyl)-6-(pyrimidin-2-ylamino)pyridin-2-ylamino)piperidin-1-yl) prop-2-en-1-one]: the IC50 at ITK and on BTK was around 1000 nM in each case.
